According to patent US20260274807A1 (University of Health Sciences and Pharmacy in St. Louis, priority 2023, published 2026):

Assays:
[1] = biological target: T1, ERRα (Homo sapiens, UniProt P11474); experiment: ERRE luciferase reporter assay in HEK293 cells transfected with pcDNA3.1 ERRα; type: cell-based; design: key to EC50 (ERRα) μM: * <1 μM; ** 1-5 μM; *** >5 μM; i.a. (inactive); details: HEK293 cells transfected with ERRE reporter construct and pcDNA3.1 ERRα; compound for 24 hours; luciferase activity
T1 construct: expressed in transfected cells; host or cells: HEK293
T1 sequence (P11474 1-423): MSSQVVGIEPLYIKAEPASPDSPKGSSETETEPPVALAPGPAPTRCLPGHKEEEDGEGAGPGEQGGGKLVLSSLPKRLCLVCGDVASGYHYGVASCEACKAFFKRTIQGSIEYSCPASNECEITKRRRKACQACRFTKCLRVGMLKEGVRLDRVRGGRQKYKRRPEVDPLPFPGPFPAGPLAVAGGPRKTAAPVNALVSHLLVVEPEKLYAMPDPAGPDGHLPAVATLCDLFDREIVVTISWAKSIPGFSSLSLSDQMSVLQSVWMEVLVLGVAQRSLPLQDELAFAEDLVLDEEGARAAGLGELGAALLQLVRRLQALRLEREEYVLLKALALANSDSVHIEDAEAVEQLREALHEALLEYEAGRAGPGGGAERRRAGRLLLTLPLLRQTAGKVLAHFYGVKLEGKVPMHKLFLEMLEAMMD

[2] = biological target: T2, ERRγ (Homo sapiens, UniProt P62508); experiment: ERRE luciferase reporter assay in HEK293 cells transfected with pcDNA3.1 ERRγ; type: cell-based; design: key to EC50 (ERRγ) μM: * <1 μM; ** 1-5 μM; *** >5 μM; i.a. (inactive); details: HEK293 cells transfected with ERRE reporter construct and pcDNA3.1 ERRγ; compound for 24 hours; luciferase activity
T2 construct: expressed in transfected cells; host or cells: HEK293
T2 sequence (P62508 1-458): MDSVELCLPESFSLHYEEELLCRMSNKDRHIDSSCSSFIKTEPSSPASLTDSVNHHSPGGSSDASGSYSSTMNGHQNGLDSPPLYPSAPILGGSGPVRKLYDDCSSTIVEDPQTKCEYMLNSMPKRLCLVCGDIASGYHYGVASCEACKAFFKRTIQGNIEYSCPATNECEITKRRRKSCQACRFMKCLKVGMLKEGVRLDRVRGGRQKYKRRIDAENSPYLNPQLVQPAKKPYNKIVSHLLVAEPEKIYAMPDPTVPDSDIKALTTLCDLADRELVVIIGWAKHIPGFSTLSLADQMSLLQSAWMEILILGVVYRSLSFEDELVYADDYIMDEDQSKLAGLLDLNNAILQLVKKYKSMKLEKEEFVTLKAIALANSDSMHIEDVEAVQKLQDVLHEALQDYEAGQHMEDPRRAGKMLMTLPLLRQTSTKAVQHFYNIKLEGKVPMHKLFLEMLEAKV

Row | SMILES | EC50 [1] | EC50 [2] | EC50 (ERRα) μM [1] | EC50 (ERRγ) μM [2]
1 | COc1ccc([N+](=O)[O-])c(-c2nnc(-c3ccccc3)s2)c1 [Entry 1035, 2-(5-methoxy-2-nitrophenyl)-5-phenyl-1,3,4-thiadiazole] | 1000 to 5000 nM | 1000 to 5000 nM | – | –
2 | O=[N+]([O-])c1cc(Br)ccc1-c1nnc(-c2ccccc2)s1 [Entry 1037, 2-(4-bromo-2-nitrophenyl)-5-phenyl-1,3,4-thiadiazole] | 1000 to 5000 nM | < 1000 nM | – | –
3 | Cc1cccc(-c2nnc(-c3ccccc3Cl)s2)c1 [Entry 1041, 2-(2-chlorophenyl)-5-(m-tolyl)-1,3,4-thiadiazole] | > 5000 nM | < 1000 nM | – | –
4 | Cc1ccc(-c2nnc(-c3cccc4ccccc34)s2)cc1 [Entry 1043, 2-(naphthalen-1-yl)-5-(p-tolyl)-1,3,4-thiadiazole] | < 1000 nM | < 1000 nM | – | –
5 | Cc1ccc(-c2nnc(-c3ccc4ccccc4c3)s2)cc1 [Entry 1044, 2-(naphthalen-2-yl)-5-(p-tolyl)-1,3,4-thiadiazole] | > 5000 nM | < 1000 nM | – | –
6 | Cc1ccc(-c2nnc(-c3cccc(Cl)c3)s2)cc1 [Entry 1045, 2-(3-chlorophenyl)-5-(p-tolyl)-1,3,4-thiadiazole] | < 1000 nM | < 1000 nM | – | –
7 | Cc1ccc(-c2nnc(-c3ccc(Cl)cc3)s2)cc1 [Entry 1048, 2-(4-chlorophenyl)-5-(p-tolyl)-1,3,4-thiadiazole] | < 1000 nM | < 1000 nM | – | –
8 | CCCCOc1ccc(-c2nnc(-c3ccccc3Cl)s2)cc1 [Entry 1052, 2-(4-butoxyphenyl)-5-(2-chlorophenyl)-1,3,4-thiadiazole] | < 1000 nM | < 1000 nM | – | –
9 | Cc1ccc(-c2nnc(-c3cnn(-c4ccccc4)c3)s2)cc1 [Entry 1053, 2-(1-phenyl-1H-pyrazol-4-yl)-5-(p-tolyl)-1,3,4-thiadiazole] | > 5000 nM | < 1000 nM | – | –
10 | Cc1ccc(-c2nnc(-c3ccc(B(O)O)cc3)s2)cc1 [Entry 1055, (4-(5-(p-tolyl)-1,3,4-thiadiazol-2-yl)phenyl)boronic acid] | < 1000 nM | < 1000 nM | – | –
11 | COC(=O)c1cccc(-c2nnc(-c3ccc(C(F)(F)F)cc3)s2)c1 [Entry 1064, methyl 3-(5-(4-(trifluoromethyl)phenyl)-1,3,4-thiadiazol-2-yl)benzoate] | > 5000 nM | 1000 to 5000 nM | – | –
12 | COc1ccc(-c2nnc(-c3ccc(C(F)(F)F)cc3)s2)cn1 [Entry 1071, 2-(6-methoxypyridin-3-yl)-5-(4-(trifluoromethyl)phenyl)-1,3,4-thiadiazole] | < 1000 nM | 1000 to 5000 nM | – | –
13 | Cc1ccc(-c2nnc(-c3scnc3C)s2)cc1 [Entry 1080, 2-(4-methylthiazol-5-yl)-5-(p-tolyl)-1,3,4-thiadiazole] | < 1000 nM | < 1000 nM | – | –

The next lines start with the values.

Row | EC50 [1] | EC50 [2] | EC50 (ERRα) μM [1] | EC50 (ERRγ) μM [2] | SMILES
14 | < 1000 nM | < 1000 nM | – | – | COc1ccc(-c2nnc(-c3ccccc3)s2)c([N+](=O)[O-])c1 [Entry 1036, 2-(4-methoxy-2-nitrophenyl)-5-phenyl-1,3,4-thiadiazole]
15 | 1000 to 5000 nM | 1000 to 5000 nM | – | – | c1ccc(Cc2nnc(-c3ccccc3)s2)cc1 [Entry 1038, 2-benzyl-5-phenyl-1,3,4-thiadiazole]
16 | > 5000 nM | > 5000 nM | – | – | c1ccc(-c2ccc(Cc3nnc(-c4ccccc4)s3)cc2)cc1 [Entry 1039, 2-([1,1′-biphenyl]-4-ylmethyl)-5-phenyl-1,3,4-thiadiazole]
17 | > 5000 nM | < 1000 nM | – | – | Cc1ccc(-c2nnc(-c3ccc4ccccc4n3)s2)cc1 [Entry 1042, 2-(quinolin-2-yl)-5-(p-tolyl)-1,3,4-thiadiazole]
18 | < 1000 nM | < 1000 nM | – | – | Oc1ccc(-c2nnc(-c3ccc4ccccc4c3)s2)cc1 [Entry 1046, 4-(5-(naphthalen-2-yl)-1,3,4-thiadiazol-2-yl)phenol]
19 | – | – | i.a. | i.a. | Oc1ccc(-c2nnc(-c3ccc4ccccc4n3)s2)cc1 [Entry 1047, 4-(5-(quinolin-2-yl)-1,3,4-thiadiazol-2-yl)phenol]
20 | < 1000 nM | < 1000 nM | – | – | COC(=O)c1cccc(-c2nnc(-c3ccccc3Cl)s2)c1 [Entry 1050, methyl 3-(5-(2-chlorophenyl)-1,3,4-thiadiazol-2-yl)benzoate]
21 | < 1000 nM | < 1000 nM | – | – | COC(=O)c1ccc(-c2nnc(-c3ccccc3Cl)s2)cc1 [Entry 1051, methyl 4-(5-(2-chlorophenyl)-1,3,4-thiadiazol-2-yl)benzoate]
22 | < 1000 nM | < 1000 nM | – | – | Cc1ccc(-c2nnc(-c3cccc4ncccc34)s2)cc1 [Entry 1058, 2-(quinolin-5-yl)-5-(p-tolyl)-1,3,4-thiadiazole]
23 | < 1000 nM | < 1000 nM | – | – | Clc1ccccc1-c1nnc(-c2cccc3ncccc23)s1 [Entry 1059, 2-(2-chlorophenyl)-5-(quinolin-5-yl)-1,3,4-thiadiazole]
24 | < 1000 nM | < 1000 nM | – | – | Cc1ccc(-c2nnc(-c3nccs3)s2)cc1 [Entry 1060, 2-(thiazol-2-yl)-5-(p-tolyl)-1,3,4-thiadiazole]
25 | > 5000 nM | > 5000 nM | – | – | Clc1ccccc1-c1nnc(-c2nccs2)s1 [Entry 1061, 2-(2-chlorophenyl)-5-(thiazol-2-yl)-1,3,4-thiadiazole]
26 | < 1000 nM | < 1000 nM | – | – | FC(F)(F)c1ccc(-c2nnc(-c3cccc4ncccc34)s2)cc1 [Entry 1062, 2-(quinolin-5-yl)-5-(4-(trifluoromethyl)phenyl)-1,3,4-thiadiazole]
27 | > 5000 nM | 1000 to 5000 nM | – | – | Cc1cccc(-c2nnc(-c3cccc(C(F)(F)F)c3)s2)n1 [Entry 1073, 2-(6-methylpyridin-2-yl)-5-(3-(trifluoromethyl)phenyl)-1,3,4-thiadiazole]
28 | 1000 to 5000 nM | 1000 to 5000 nM | – | – | FC(F)(F)c1cccc(-c2nnc(-c3cccnc3Cl)s2)c1 [Entry 1074, 2-(2-chloropyridin-3-yl)-5-(3-(trifluoromethyl)phenyl)-1,3,4-thiadiazole]
29 | < 1000 nM | < 1000 nM | – | – | Cc1ccc(-c2nnc(-c3cncs3)s2)cc1 [Entry 1082, 2-(thiazol-5-yl)-5-(p-tolyl)-1,3,4-thiadiazole]
